According to BindingDB's records for doi:10.1016/j.bmcl.2003.12.063 (Sankyo, 2004):

molecular target: Ileal sodium/bile acid cotransporter (Mesocricetus auratus); assay: In vitro Inhibition of apical sodium-dependent bile acid transporter by measuring the uptake of [3H]taurocholate in hamster ileal ring

**Q.** For `CCCCC1(CCCC)CS(=O)(=O)c2ccc(N(C)C)cc2[C@@H](c2ccc(OC)cc2)[C@H]1O` [(4R,5R)-3,3-Dibutyl-7-dimethylamino-5-(4-methoxy-phenyl)-1,1-dioxo-2,3,4,5-tetrahydro-1H-1lambda*6*-benzo[b]thiepin-4-ol], which IC50 is on record?
**A.** The IC50 was over 63000 nM.

**Q.** For `CCC(CC)CC(=O)c1c(C(=O)OC)c(-c2ccc(OC)c(OC)c2)c2c(OC)c(OC)c(OC)cc2c1OC1O[C@H](C(=O)O)[C@@H](O)[C@H](O)[C@H]1O` (stereo partly drawn) [(2S,3S,4S,5R)-6-[4-(3,4-Dimethoxy-phenyl)-2-(3-ethyl-pentanoyl)-5,6,7-trimethoxy-3-methoxycarbonyl-naphthalen-1-yloxy]-3,4,5-trihydroxy-tetrahydro-pyran-2-carboxylic acid], which IC50 is on record?
**A.** Its IC50 is 2800 nM.

**Q.** How did the IC50 turn out when `CCC(CC)CC(=O)c1c(C(=O)OC)c(-c2ccc(OC)c(OC)c2)c2c(OC)c(OC)c(OC)cc2c1O` [1-(3,4-Dimethoxy-phenyl)-3-(3-ethyl-pentanoyl)-4-hydroxy-6,7,8-trimethoxy-naphthalene-2-carboxylic acid methyl ester] was run?
**A.** The IC50 was over 185000 nM.

**Q.** How did the IC50 turn out when `CCN(C(=O)c1cn(-c2cc(OC)cc(OC)c2)c2cc(OCCCCCCCC[N+]34CCN(CC3)CC4)ccc2c1=O)c1cc(F)cc(F)c1` [1-{8-[3-[(3,5-Difluoro-phenyl)-ethyl-carbamoyl]-1-(3,5-dimethoxy-phenyl)-4-oxo-1,4-dihydro-quinolin-7-yloxy]-octyl}-4-aza-1-azonia-bicyclo[2.2.2]octane; bromide] was run?
**A.** The IC50 was 1070 nM.

**Q.** For `CCN(C(=O)c1cn(-c2cc(OC)cc(OC)c2)c2cc(OCCCCCCC[N+]34CCN(CC3)CC4)ccc2c1=O)c1cc(F)cc(F)c1` [1-{7-[3-[(3,5-Difluoro-phenyl)-ethyl-carbamoyl]-1-(3,5-dimethoxy-phenyl)-4-oxo-1,4-dihydro-quinolin-7-yloxy]-heptyl}-4-aza-1-azonia-bicyclo[2.2.2]octane; bromide], which IC50 is on record?
**A.** Its IC50 is 770 nM.
